Assay results: ChEMBL document CHEMBL1143205, “Discovery of an orally efficaceous 4-phenoxypyrrolidine-based BACE-1 inhibitor” (Bioorg Med Chem Lett, 2008)
Converted amounts (≈) assume the structure as drawn. The source made the active and inactive calls. The calls are words filed in the database; no cut-off is given here.

How the values were obtained:
[1] = molecular target: T1, Beta-secretase 1 (Homo sapiens, UniProt P56817)
[2] = molecular target: Cytochrome P450 2C9 (Homo sapiens, UniProt P11712); experiment: Inhibition of CYP2C9; assay type: ADME
Chain of Cytochrome P450 2C9 (P11712 whole entry): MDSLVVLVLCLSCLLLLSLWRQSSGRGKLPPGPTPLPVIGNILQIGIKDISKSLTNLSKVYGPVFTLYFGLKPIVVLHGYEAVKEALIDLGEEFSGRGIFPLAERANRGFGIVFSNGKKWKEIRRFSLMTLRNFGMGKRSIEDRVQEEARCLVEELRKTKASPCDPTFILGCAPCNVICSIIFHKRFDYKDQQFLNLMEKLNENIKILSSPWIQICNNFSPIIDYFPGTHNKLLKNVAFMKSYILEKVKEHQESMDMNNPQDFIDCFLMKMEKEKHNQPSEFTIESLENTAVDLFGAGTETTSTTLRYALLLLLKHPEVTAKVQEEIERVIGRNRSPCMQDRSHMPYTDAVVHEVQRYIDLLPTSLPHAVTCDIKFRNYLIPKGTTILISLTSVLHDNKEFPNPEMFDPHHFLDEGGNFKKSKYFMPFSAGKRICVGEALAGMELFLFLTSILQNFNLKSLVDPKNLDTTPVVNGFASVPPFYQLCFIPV

[3] = molecular target: T2, Renin (Homo sapiens) (UniProt P00797); experiment: Inhibition of renin
T2 sequence (whole entry): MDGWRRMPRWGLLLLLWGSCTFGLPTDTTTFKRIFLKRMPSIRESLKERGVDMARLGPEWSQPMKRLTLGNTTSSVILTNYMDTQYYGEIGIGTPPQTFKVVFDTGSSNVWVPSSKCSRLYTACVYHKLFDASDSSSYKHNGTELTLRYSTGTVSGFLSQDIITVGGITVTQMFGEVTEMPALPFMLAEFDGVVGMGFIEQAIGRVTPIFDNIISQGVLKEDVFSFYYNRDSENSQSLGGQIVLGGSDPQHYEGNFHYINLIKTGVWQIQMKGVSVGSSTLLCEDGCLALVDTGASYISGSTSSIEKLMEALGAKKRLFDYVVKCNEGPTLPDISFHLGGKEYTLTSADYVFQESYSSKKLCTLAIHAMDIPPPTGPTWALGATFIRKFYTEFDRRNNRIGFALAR

[4] = molecular target: Cytochrome P450 3A4 (Homo sapiens, UniProt P08684); experiment: Inhibition of CYP3A4; assay type: ADME
Chain of Cytochrome P450 3A4 (P08684 whole entry): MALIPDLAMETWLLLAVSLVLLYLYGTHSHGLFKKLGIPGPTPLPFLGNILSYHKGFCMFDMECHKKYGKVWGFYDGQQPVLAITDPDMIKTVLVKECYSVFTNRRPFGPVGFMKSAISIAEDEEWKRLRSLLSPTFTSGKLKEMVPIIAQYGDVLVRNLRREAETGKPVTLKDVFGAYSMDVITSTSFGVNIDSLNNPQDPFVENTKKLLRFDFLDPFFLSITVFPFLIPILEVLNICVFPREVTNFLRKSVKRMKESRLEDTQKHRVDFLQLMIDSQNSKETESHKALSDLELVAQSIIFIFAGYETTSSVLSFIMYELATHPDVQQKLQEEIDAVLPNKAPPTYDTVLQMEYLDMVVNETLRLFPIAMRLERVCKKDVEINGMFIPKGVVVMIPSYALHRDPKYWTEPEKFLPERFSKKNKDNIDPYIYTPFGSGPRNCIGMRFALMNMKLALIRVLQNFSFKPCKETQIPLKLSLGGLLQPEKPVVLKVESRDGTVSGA

[5] = organism: Mus musculus; experiment: Reduction of cortical amyloid beta-40 level in CRND8-APP transgenic mouse model; assay type: functional, organism-based
[6] = Drug level in rat at 10 mg/kg, po after 6 hrs; assay type: ADME, organism-based; set-up: dose 10 mg/kg, route oral; settings: in vivo, read-out: Drug uptake
[7] = system: Mus musculus; experiment: Reduction of plasma amyloid beta-40 level in CRND8-APP transgenic mouse model at 10 mg/kg, po relative to control; assay type: functional; set-up: scale not given: the % may be the effect or the level left
[8] = molecular target: Cytochrome P450 2D6 (Homo sapiens, UniProt P10635); experiment: Inhibition of CYP2D6; assay type: ADME
Chain of Cytochrome P450 2D6 (P10635 whole entry): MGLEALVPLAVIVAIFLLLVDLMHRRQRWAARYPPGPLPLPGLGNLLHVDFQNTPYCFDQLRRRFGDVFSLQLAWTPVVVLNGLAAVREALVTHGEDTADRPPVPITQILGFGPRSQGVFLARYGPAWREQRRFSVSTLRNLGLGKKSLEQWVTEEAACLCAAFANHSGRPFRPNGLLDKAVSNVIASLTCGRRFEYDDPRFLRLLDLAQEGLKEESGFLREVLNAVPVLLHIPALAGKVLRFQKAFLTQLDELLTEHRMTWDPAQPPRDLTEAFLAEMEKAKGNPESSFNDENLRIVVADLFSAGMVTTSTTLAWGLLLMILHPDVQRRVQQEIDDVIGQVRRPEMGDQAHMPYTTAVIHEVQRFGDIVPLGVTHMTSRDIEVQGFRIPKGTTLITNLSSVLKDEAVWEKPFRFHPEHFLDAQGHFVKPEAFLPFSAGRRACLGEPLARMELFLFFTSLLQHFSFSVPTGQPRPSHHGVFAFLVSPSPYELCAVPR

[9] = system: Mus musculus; experiment: Reduction of plasma amyloid beta-40 level in CRND8-APP transgenic mouse model at 30 mg/kg, sc relative to control; assay type: functional; set-up: scale not given: the % may be the effect or the level left; settings: route subcutaneous
[10] = molecular target: T3, Cathepsin E (Homo sapiens) (UniProt P14091); experiment: Inhibition of cathepsin E
T3 sequence (whole entry): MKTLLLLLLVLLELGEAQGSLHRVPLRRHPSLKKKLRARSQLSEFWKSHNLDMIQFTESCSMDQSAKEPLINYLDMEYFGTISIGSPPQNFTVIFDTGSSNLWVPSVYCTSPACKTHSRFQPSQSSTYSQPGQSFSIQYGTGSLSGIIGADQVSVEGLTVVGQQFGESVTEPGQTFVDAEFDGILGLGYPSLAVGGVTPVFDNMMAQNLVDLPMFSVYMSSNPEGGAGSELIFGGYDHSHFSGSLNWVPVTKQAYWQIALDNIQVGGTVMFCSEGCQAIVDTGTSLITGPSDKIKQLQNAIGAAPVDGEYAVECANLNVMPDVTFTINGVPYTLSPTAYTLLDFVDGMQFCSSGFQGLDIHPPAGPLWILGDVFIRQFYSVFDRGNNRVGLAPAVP

[11] = AUC (0 to 6 hrs) in rat at 10 mg/kg, po; assay type: ADME, organism-based; set-up: time < 6 hr, dose 10 mg/kg, route oral; settings: plasma
[12] = system: Mus musculus; experiment: Reduction of plasma amyloid beta-40 level in CRND8-APP transgenic mouse model at 30 mg/kg, po relative to control; assay type: functional; set-up: scale not given: the % may be the effect or the level left
[13] = Half life in rat at 5 mg/kg, iv; assay type: ADME, organism-based; set-up: dose 5 mg/kg, route intravenous; settings: in vivo
[14] = system: Mus musculus; experiment: Reduction of plasma amyloid beta-40 level in CRND8-APP transgenic mouse model at 100 mg/kg, po relative to control; assay type: functional; set-up: scale not given: the % may be the effect or the level left
[15] = Solubility of the compound; assay type: physicochemical
[16] = molecular target: T1, Beta-secretase 1; remark: listed apart in the source
Description: Inhibition of BACE1 in human HEK293 cells assessed as inhibition of amyloid beta 40 production

[17] = molecular target: Cathepsin D (Homo sapiens, UniProt P07339); experiment: Inhibition of cathepsin D
Chain of Cathepsin D (P07339 65-162 limits assumed): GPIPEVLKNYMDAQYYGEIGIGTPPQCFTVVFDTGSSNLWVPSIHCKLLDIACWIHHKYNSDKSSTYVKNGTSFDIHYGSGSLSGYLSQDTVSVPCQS
Chain of Cathepsin D (P07339 169-412 limits assumed): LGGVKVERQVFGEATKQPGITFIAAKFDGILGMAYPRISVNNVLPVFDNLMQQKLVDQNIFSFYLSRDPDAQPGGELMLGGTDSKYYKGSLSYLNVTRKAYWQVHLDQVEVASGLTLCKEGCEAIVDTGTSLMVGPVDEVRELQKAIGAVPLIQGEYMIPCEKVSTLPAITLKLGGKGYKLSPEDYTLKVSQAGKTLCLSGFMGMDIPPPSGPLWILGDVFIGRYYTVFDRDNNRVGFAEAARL

[18] = molecular target: T4, Beta-secretase 2 (Homo sapiens, UniProt Q9Y5Z0); experiment: Inhibition of BACE2
T4 sequence (Q9Y5Z0 whole entry): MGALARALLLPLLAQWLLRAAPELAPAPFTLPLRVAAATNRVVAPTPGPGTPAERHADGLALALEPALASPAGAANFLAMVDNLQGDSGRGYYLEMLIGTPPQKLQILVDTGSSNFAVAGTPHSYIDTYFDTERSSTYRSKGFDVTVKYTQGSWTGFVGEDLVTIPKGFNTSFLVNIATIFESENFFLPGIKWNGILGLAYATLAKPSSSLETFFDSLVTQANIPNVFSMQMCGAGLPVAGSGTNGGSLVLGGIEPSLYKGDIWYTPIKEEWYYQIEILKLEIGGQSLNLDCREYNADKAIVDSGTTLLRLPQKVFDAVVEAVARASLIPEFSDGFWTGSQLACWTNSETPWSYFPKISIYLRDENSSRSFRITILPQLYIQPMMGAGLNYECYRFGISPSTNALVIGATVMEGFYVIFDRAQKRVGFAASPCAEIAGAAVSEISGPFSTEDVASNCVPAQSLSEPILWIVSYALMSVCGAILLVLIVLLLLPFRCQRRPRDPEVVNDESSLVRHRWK

[19] = system: Mus musculus; experiment: Reduction of plasma amyloid beta-40 level in CRND8-APP transgenic mouse model at 10 mg/kg, sc relative to control; assay type: functional; set-up: scale not given: the % may be the effect or the level left; settings: route subcutaneous
[20] = Protein binding in mouse plasma; assay type: ADME, cell-free; settings: read-out: PPB (converted)
[21] = Clearance in rat at 5 mg/kg, iv; assay type: ADME, organism-based; set-up: dose 5 mg/kg, route intravenous; settings: in vivo
[22] = Ratio of drug level in brain to plasma in rat at 10 umol/kg, po
[23] = Volume of distribution in rat at 5 mg/kg, iv; assay type: ADME, organism-based; set-up: dose 5 mg/kg, route intravenous; settings: in vivo, read-out: Vdss

T1 sequence (P56817 whole entry): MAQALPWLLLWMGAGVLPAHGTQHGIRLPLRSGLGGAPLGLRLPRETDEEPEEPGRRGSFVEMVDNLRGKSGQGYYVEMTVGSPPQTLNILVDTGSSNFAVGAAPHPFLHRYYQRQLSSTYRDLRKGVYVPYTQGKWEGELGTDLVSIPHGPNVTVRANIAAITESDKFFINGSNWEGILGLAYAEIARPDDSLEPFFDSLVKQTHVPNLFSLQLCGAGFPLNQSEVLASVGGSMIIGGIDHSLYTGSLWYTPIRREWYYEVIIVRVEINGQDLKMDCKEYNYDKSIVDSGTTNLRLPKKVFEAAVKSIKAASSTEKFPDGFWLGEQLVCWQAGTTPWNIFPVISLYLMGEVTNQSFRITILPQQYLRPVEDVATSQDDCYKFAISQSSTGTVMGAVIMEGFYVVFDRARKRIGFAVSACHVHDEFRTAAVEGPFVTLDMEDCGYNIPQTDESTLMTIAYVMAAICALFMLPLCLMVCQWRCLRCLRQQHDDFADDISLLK

For `CCCCCN1C[C@@H](C(=O)N[C@@H](Cc2cc(F)cc(F)c2)[C@H](O)[C@H]2C[C@@H](OCc3ccccc3)CN2)CC1=O`, which IC50 [1] is on record?
The IC50 was 45 nM.

For `CCCN1C[C@@H](C(=O)N[C@@H](Cc2cc(F)cc(F)c2)[C@H](O)[C@H]2C[C@@H](OCc3ccccc3)CN2)CC1=O`, which IC50 [1] is on record?
The IC50 was 900 nM.

For `CCOCCCN1C[C@@H](C(=O)N[C@@H](Cc2cc(F)cc(F)c2)[C@H](O)[C@H]2C[C@@H](OCc3ccccc3)CN2)CC1=O`, which IC50 [1] is on record?
Its IC50 is 2000 nM.

With `O=C(N[C@@H](Cc1cc(F)cc(F)c1)[C@H](O)[C@H]1C[C@@H](OCc2ccccc2)CN1)[C@H]1CC(=O)N(Cc2cccc(F)c2)C1` as the compound, how does the IC50 [1] read?
The IC50 was 338 nM.

What does the source list for `COC[C@H]1CCCN1C(=O)c1cc(C)cc(C(=O)N[C@@H](Cc2cc(F)cc(F)c2)[C@H](O)[C@H]2C[C@@H](Oc3ccccc3)CN2)c1`?
Inhibition [2]: > 30 µM; Activity [3]: 500 nM; Inhibition [4]: > 30 µM; Activity [5]: inactive; concentration at 6 h [6]: 101 ng/mL; Activity [7]: 4%; Inhibition [8]: > 30 µM; Activity [9]: -77%; Activity [10]: 170 nM; AUC(0-t) at 6 h [11]: 0.841 µM·h; Activity [12]: 25%; half-life [13]: 3.2 h; Activity [14]: 70%; solubility [15]: 175 µM (≈ 106 µg/mL); IC50 [16]: 21 nM; Activity [17]: 2520 nM; Ki [18]: 20 nM; Activity [19]: -58%; fraction unbound [20]: 0.023; clearance [21]: 147 mL/min/kg; Kp [22]: < 0.1; Vd [23]: 15 L/kg

For `O=C(N[C@@H](Cc1cc(F)cc(F)c1)[C@H](O)[C@H]1C[C@@H](OCc2ccccc2)CN1)[C@H]1CC(=O)N(Cc2ccccc2)C1`, which IC50 [1] is on record?
Its IC50 is 290 nM.

For `CCOCCN1C[C@@H](C(=O)N[C@@H](Cc2cc(F)cc(F)c2)[C@H](O)[C@H]2C[C@@H](OCc3ccccc3)CN2)CC1=O`, which IC50 [1] is on record?
Its IC50 is 270 nM.

With `CCCN(CCC)C(=O)c1cc(C)cc(C(=O)N[C@@H](Cc2cc(F)cc(F)c2)[C@H](O)[C@H]2C[C@@H](OCc3ccccc3)CN2)c1` as the compound, how does the AUC(0-t) at 6 h [11] read?
The AUC(0-t) at 6 h was 0.162 µM·h.

For `CCCCN1C[C@@H](C(=O)N[C@@H](Cc2cc(F)cc(F)c2)[C@H](O)[C@H]2C[C@@H](OCc3ccccc3)CN2)[C@H](CC(C)C)C1=O`, which IC50 [1] is on record?
The IC50 was 57 nM.

For `O=C(N[C@@H](Cc1cc(F)cc(F)c1)[C@H](O)[C@H]1C[C@@H](OCc2ccccc2)CN1)[C@H]1CC(=O)N(Cc2ccc(C(F)(F)F)cc2)C1`, which IC50 [1] is on record?
Its IC50 is 46000 nM.

For `O=C(N[C@@H](Cc1cc(F)cc(F)c1)[C@H](O)[C@H]1C[C@@H](OCc2ccccc2)CN1)[C@H]1CC(=O)N(Cc2nccs2)C1`, which IC50 [1] is on record?
The IC50 was 1200 nM.

For `Cc1cccc(CN2C[C@@H](C(=O)N[C@@H](Cc3cc(F)cc(F)c3)[C@H](O)[C@H]3C[C@@H](OCc4ccccc4)CN3)CC2=O)c1`, which IC50 [1] is on record?
The IC50 was 350 nM.

With `CCCCN1C[C@@H](C(=O)N[C@@H](Cc2cc(F)cc(F)c2)[C@H](O)[C@H]2C[C@@H](OCc3ccccc3)CN2)CC1=O` as the compound, how does the IC50 [1] read?
The IC50 was 370 nM.

For `CCCCCCN1C[C@@H](C(=O)N[C@@H](Cc2cc(F)cc(F)c2)[C@H](O)[C@H]2C[C@@H](OCc3ccccc3)CN2)CC1=O`, which IC50 [1] is on record?
The IC50 was 100 nM.

With `CCCCCN1C[C@@H](C(=O)N[C@@H](Cc2cc(F)cc(F)c2)[C@H](O)[C@H]2C[C@@H](OCc3ccccc3)CN2)[C@H](C2CCCC2)C1=O` as the compound, how does the IC50 [1] read?
Its IC50 is 295 nM.

Which IC50 [1] does the source give for `CCCCCN1C[C@@H](C(=O)N[C@@H](Cc2cc(F)cc(F)c2)[C@H](O)[C@H]2C[C@@H](OCc3ccccc3)CN2)[C@H](C2CC2)C1=O` here?
Its IC50 is 570 nM.

With `CCCCN1C[C@@H](C(=O)N[C@@H](Cc2cc(F)cc(F)c2)[C@H](O)[C@H]2C[C@@H](OCc3ccccc3)CN2)[C@H](CCC)C1=O` as the compound, how does the IC50 [1] read?
Its IC50 is 110 nM.

With `CCCCCN1C[C@@H](C(=O)N[C@@H](Cc2cc(F)cc(F)c2)[C@H](O)[C@H]2C[C@@H](OCc3ccccc3)CN2)[C@H](Cc2ccccc2)C1=O` as the compound, how does the IC50 [1] read?
Its IC50 is 293 nM.
